The values that follow come from patent US8809376B2, “Indanyloxydihydrobenzofuranylacetic acids” (Boehringer Ingelheim International GmbH, priority 2012, dated 2014).

The structures appear in SMILES notation.

T1 sequence (O14842 whole entry): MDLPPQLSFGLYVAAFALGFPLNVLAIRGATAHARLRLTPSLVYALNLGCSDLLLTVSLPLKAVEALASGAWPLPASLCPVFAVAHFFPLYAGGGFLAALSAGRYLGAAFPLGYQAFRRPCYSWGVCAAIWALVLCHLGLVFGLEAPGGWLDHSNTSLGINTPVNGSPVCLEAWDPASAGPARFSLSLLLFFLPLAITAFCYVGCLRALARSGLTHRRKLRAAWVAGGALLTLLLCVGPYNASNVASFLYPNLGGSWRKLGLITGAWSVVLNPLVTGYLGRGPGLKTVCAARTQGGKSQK

One assay has as its target T1, human GPR40 receptor (Homo sapiens, UniProt O14842). In words: Assay II: IP1 accumulation (IPOne assay system) in 1321N1 cells stably expressing human GPR40 receptor. It is filed as cell-based. The settings on record: stimulated 1 h at 37° C., 5% CO2, LiCl 50 mM. The method, then:
IP1 accumulation measurements using the IPOne assay system—1321N1 cells stably expressing human GPR40 receptor (Euroscreen, Belgium) are seeded 24 h before the assay in white 384-well plates in culture medium containing 10% FCS, 1% Na-Pyruvate and 400 μg/mL G418. IP1 is assayed according to the manufacturer's description (Cisbio Bioassays, France). In brief, the assay is started by substitution of the culture medium by stimulation buffer (Hepes 10 mM, CaCl2 1 mM, MgCl2 0.5 mM, KCl 4.2 mM, NaCl 146 mM, glucose 5.5 mM and LiCl 50 mM, pH 7.4). Cells are stimulated for 1 h at 37° C., 5% CO2 by addition of the compounds that are diluted in stimulation buffer containing LiCl. Assays are stopped by adding HTRF-conjugates (IP1-d2 and Anti-IP1 cryptate Tb) and lysis buffer, provided by the manufacturer. After an incubation time of 1 h at room temperature plates are measured using an EnVision™, Perkin Elmer. The obtained fluorescence ratios at 665/615 […] are then used to calculate the pEC50 values using Assay Explorer 3.3 Software (Accelrys, Inc.) by interpolation using an IP1 reference curve and subsequent sigmoidal curve fitting allowing for a variable hill slope.
As to `O=C(O)C[C@@H]1COc2cc(O[C@@H]3CCc4c3ccc(C(F)(F)F)c4Cc3ccc(Cl)cc3)ccc21` [Example 37, {(S)-6-[(R)-4-(4-Chloro-benzyl)-5-trifluoromethyl-indan-1-yloxy]-2,3-dihydrobenzofuran-3-yl}-acetic acid], the midpoint of the response, the EC50, lay at 4 nM. In turn, `N#Cc1ccc2c(c1Cc1cccc(F)c1F)CC[C@H]2Oc1ccc2c(c1)OC[C@H]2CC(=O)O` [Example 32, {(S)-6-[(R)-5-Cyano-4-(2,3-difluoro-benzyl)-indan-1-yloxy]-2,3-dihydro-benzofuran-3-yl}-acetic acid] had an EC50 of 8 nM. As to `O=C(O)C[C@@H]1COc2cc(O[C@@H]3CCc4c3ccc(C(F)(F)F)c4Cc3ccc(O)cc3)ccc21` [Example 25, {(S)-6-[(R)-4-(4-Hydroxy-benzyl)-5-trifluoromethyl-indan-1-yloxy]-2,3-dihydrobenzofuran-3-yl}-acetic acid], a half-maximal effect (EC50) was put at 2 nM. Same read-out and setting: the value for `N#Cc1ccc2c(c1Cc1c(F)cccc1F)CC[C@H]2Oc1ccc2c(c1)OC[C@H]2CC(=O)O` [Example 28, {(S)-6-[(R)-5-Cyano-4-(2,6-difluoro-benzyl)-indan-1-yloxy]-2,3-dihydro-benzofuran-3-yl}-acetic acid] was 5 nM. As for `N#Cc1ccc2c(c1Cc1cccc(F)c1)CC[C@H]2Oc1ccc2c(c1)OC[C@H]2CC(=O)O` [Example 24, {(S)-6-[(R)-5-Cyano-4-(3-fluoro-benzyl)-indan-1-yloxy]-2,3-dihydro-benzofuran-3-yl}-acetic acid], the half-maximal effective concentration (EC50) turned out to be 12 nM. `O=C(O)C[C@@H]1COc2cc(O[C@@H]3CCc4c3ccc(C(F)(F)F)c4Cc3ccc(F)cc3F)ccc21` [Example 26, {(S)-6-[(R)-4-(2,4-Difluoro-benzyl)-5-trifluoromethyl-indan-1-yloxy]-2,3-dihydrobenzofuran-3-yl}-acetic acid] registered an EC50 of 2 nM. Take `N#Cc1ccccc1Cc1c(C(F)(F)F)ccc2c1CC[C@H]2Oc1ccc2c(c1)OC[C@H]2CC(=O)O` [Example 36, {(S)-6-[(R)-4-(2-Cyano-benzyl)-5-trifluoromethyl-indan-1-yloxy]-2,3-dihydrobenzofuran-3-yl}-acetic acid]: the midpoint of the response, the EC50, lay at 2 nM. Consider `O=C(O)C[C@@H]1COc2cc(O[C@@H]3CCc4c3ccc(C(F)(F)F)c4Cc3cccc(F)c3)ccc21` [Example 29, {(S)-6-[(R)-4-(3-Fluoro-benzyl)-5-trifluoromethyl-indan-1-yloxy]-2,3-dihydrobenzofuran-3-yl}-acetic acid], for which the EC50 is 3 nM. Compound `N#Cc1ccc2c(c1Cc1ccccc1F)CC[C@H]2Oc1ccc2c(c1)OC[C@H]2CC(=O)O` [Example 22, {(S)-6-[(R)-5-Cyano-4-(2-fluoro-benzyl)-indan-1-yloxy]-2,3-dihydro-benzofuran-3-yl}-acetic acid] gave a half-maximal effective concentration (EC50) of 6 nM. The same measure, in the same setting: the value for `COc1ccc(OC)c(Cc2c(C(F)(F)F)ccc3c2CC[C@H]3Oc2ccc3c(c2)OC[C@H]3CC(=O)O)c1` [Example 40, {(S)-6-[(R)-4-(2,5-Dimethoxy-benzyl)-5-trifluoromethyl-indan-1-yloxy]-2,3-dihydrobenzofuran-3-yl}-acetic acid] was 5 nM; that for `Cc1ccccc1Cc1c(C(F)(F)F)ccc2c1CC[C@H]2Oc1ccc2c(c1)OC[C@H]2CC(=O)O` [Example 35, {(S)-6-[(R)-4-(2-Methyl-benzyl)-5-trifluoromethyl-indan-1-yloxy]-2,3-dihydrobenzofuran-3-yl}-acetic acid] was 2 nM; that for `O=C(O)C[C@@H]1COc2cc(O[C@@H]3CCc4c3ccc(C(F)(F)F)c4Cc3ccc(F)cc3)ccc21` [Example 30, {(S)-6-[(R)-4-(4-Fluoro-benzyl)-5-trifluoromethyl-indan-1-yloxy]-2,3-dihydrobenzofuran-3-yl}-acetic acid] was 2 nM.

The compound `N#Cc1ccc2c(c1Cc1ccc(F)cc1)CC[C@H]2Oc1ccc2c(c1)OC[C@H]2CC(=O)O` [Example 23, {(S)-6-[(R)-5-Cyano-4-(4-fluoro-benzyl)-indan-1-yloxy]-2,3-dihydro-benzofuran-3-yl}-acetic acid] gave an EC50 of 11 nM. The same measure, in the same setting: the value for `N#Cc1ccc(Cc2ccc(F)c3c2CC[C@H]3Oc2ccc3c(c2)OC[C@H]3CC(=O)O)cc1` [Example 20, {(S)-6-[(R)-4-(4-Cyano-benzyl)-7-fluoro-indan-1-yloxy]-2,3-dihydrobenzofuran-3-yl}-acetic acid] was 589 nM; that for `O=C(O)C[C@@H]1COc2cc(O[C@@H]3CCc4c3ccc(C(F)(F)F)c4Cc3ccccc3F)ccc21` [Example 31, {(S)-6-[(R)-4-(2-Fluoro-benzyl)-5-trifluoromethyl-indan-1-yloxy]-2,3-dihydrobenzofuran-3-yl}-acetic acid] was 2 nM. Still for that read-out and setting: under `N#Cc1cccc(Cc2c(C(F)(F)F)ccc3c2CC[C@H]3Oc2ccc3c(c2)OC[C@H]3CC(=O)O)c1` [Example 34, {(S)-6-[(R)-4-(3-Cyano-benzyl)-5-trifluoromethyl-indan-1-yloxy]-2,3-dihydrobenzofuran-3-yl}-acetic acid] stands 4 nM; under `O=C(O)C[C@@H]1COc2cc(O[C@@H]3CCc4c(Cc5cc(F)cc(F)c5)ccc(F)c43)ccc21` [Example 18, {(S)-6-[(R)-4-(3,5-Difluoro-benzyl)-7-fluoro-indan-1-yloxy]-2,3-dihydrobenzofuran-3-yl}-acetic acid], 27 nM. As to `O=C(O)C[C@@H]1COc2cc(O[C@@H]3CCc4c(Cc5c(F)cccc5F)ccc(F)c43)ccc21` [Example 19, {(S)-6-[(R)-4-(2,6-Difluoro-benzyl)-7-fluoro-indan-1-yloxy]-2,3-dihydrobenzofuran-3-yl}-acetic acid], the EC50 was found to be 23 nM. Take `COc1ccc(Cc2c(C(F)(F)F)ccc3c2CC[C@H]3Oc2ccc3c(c2)OC[C@H]3CC(=O)O)cn1` [Example 38]: a half-maximal response (EC50) required 1 nM. The same measure, in the same setting: under `CS(=O)(=O)c1ccc(Cc2c(C(F)(F)F)ccc3c2CC[C@H]3Oc2ccc3c(c2)OC[C@H]3CC(=O)O)cc1` [Example 17, {(S)-6-[(R)-4-(4-Methylsulfonyl-benzyl)-5-trifluoromethyl-indan-1-yloxy]-2,3-dihydro-benzofuran-3-yl}-acetic acid] stands 24 nM. In turn, `O=C(O)C[C@@H]1COc2cc(O[C@@H]3CCc4c(Cc5ccc(F)cc5F)ccc(F)c43)ccc21` [Example 21, {(S)-6-[(R)-4-(2,4-Difluoro-benzyl)-7-fluoro-indan-1-yloxy]-2,3-dihydrobenzofuran-3-yl}-acetic acid] showed an EC50 of 15 nM. Same read-out and setting: under `COc1cccc(Cc2c(C(F)(F)F)ccc3c2CC[C@H]3Oc2ccc3c(c2)OC[C@H]3CC(=O)O)c1` [Example 27, {(S)-6-[(R)-4-(3-Methoxy-benzyl)-5-trifluoromethyl-indan-1-yloxy]-2,3-dihydrobenzofuran-3-yl}-acetic acid] stands 5 nM. Same read-out and setting: the value for `COc1ccc(Cc2c(C(F)(F)F)ccc3c2CC[C@H]3Oc2ccc3c(c2)OC[C@H]3CC(=O)O)cc1` [Example 33, {(S)-6-[(R)-4-(4-Methoxy-benzyl)-5-trifluoromethyl-indan-1-yloxy]-2,3-dihydrobenzofuran-3-yl}-acetic acid] was 2 nM.

The target in a further assay is T1, human GPR40 receptor. In words: Assay I: IP1 accumulation (IPOne assay system) in 1321N1 cells stably expressing human GPR40 receptor. It is filed as cell-based. The note with it: stimulated 1 hour at 37° C., 10% CO2, LiCl 50 mM. The method, then:
IP1 accumulation measurements using the IPOne assay system—1321N1 cells stably expressing human GPR40 receptor (Euroscreen, Belgium) are seeded 24 h before the assay in black clear-bottom collagen-coated 384-well plates in culture medium containing 10% FCS, 1% Na-Pyruvate and 400 μg/mL G418. IP1 is assayed according to the Manufacturer's description (Cisbio Bioassays, France). In brief, the assay is started by substitution of the culture medium by stimulation buffer (Hepes 10 mM, CaCl2 1 mM, MgCl2 0.5 mM, KCl 4.2 mM, NaCl 146 mM and glucose 5.5 mM, pH 7.4) without LiCl. Cells are stimulated for 1 hour at 37° C., 10% CO2 by addition of the compounds that are diluted in stimulation buffer containing LiCl yielding a final LiCl concentration of 50 mM. Assays are stopped by adding HTRF-conjugates (IP1-d2 and Anti-IP1 cryptate Tb) and lysis buffer, provided by the manufacturer. After an incubation time of 1 hour at room temperature plates are measured using an EnVision™, Perkin Elmer. The obtained fluorescence ratios at 665/615 nM are then used to calculate the pEC50 values using GraphPad Prism 5 (Graphpad Software Inc, USA) by interpolation using an IP1 reference curve and subsequent sigmoidal curve fitting allowing for a variable hill slope.
`COc1ccc(Cc2c(C#N)ccc3c2CC[C@H]3Oc2ccc3c(c2)OC[C@H]3CC(=O)O)cc1` [Example 4, {(S)-6-[(R)-5-Cyano-4-(4-methoxy-benzyl)-indan-1-yloxy]-2,3-dihydro-benzofuran-3-yl}-acetic acid] displayed an EC50 of 5 nM. Same read-out and setting: the value for `N#Cc1ccc2c(c1Cc1ccccc1)CC[C@H]2Oc1ccc2c(c1)OC[C@H]2CC(=O)O` [Example 1, {(S)-6-[(R)-4-Benzyl-5-cyano-indan-1-yloxy]-2,3-dihydro-benzofuran-3-yl}-acetic acid] was 5 nM; that for `Cc1ccccc1Cc1c(C#N)ccc2c1CC[C@H]2Oc1ccc2c(c1)OC[C@H]2CC(=O)O` [Example 6, {(S)-6-[(R)-5-Cyano-4-(2-methyl-benzyl)-indan-1-yloxy]-2,3-dihydro-benzofuran-3-yl}-acetic acid] was 8 nM; that for `CSc1ccc(Cc2c(C#N)ccc3c2CC[C@H]3Oc2ccc3c(c2)OC[C@H]3CC(=O)O)cc1` [Example 7, {(S)-6-[(R)-5-Cyano-4-(4-methylsulfanyl-benzyl)-indan-1-yloxy]-2,3-dihydro-benzofuran-3-yl}-acetic acid] was 18 nM.

Usually EC50 stands for the midpoint of the concentration-response curve. Read a high EC50 as a less potent agent.
